# Columns and labels:
# [1] = system: TEL-PDGFRβ; experiment: Murine bone marrow transplant model of TEL-PDGFRβ-induced myeloproliferative disease; format: in vivo, mouse (Balb/C); settings: TEL-PDGFRβ transplanted mice
# Procedure: (§1) Murine bone marrow transplant experiments are performed as previously described. MSCV-GFP retroviral supernatants are titered by transducing Ba/F3 cells with supernatant (plus polybrene, 10 μg/mL) and analyzing for the percentage of GFP+ cells by flow cytometry at 48 h post-transduction. Balb/C donor mice (Taconic) are treated for 5-6 days with 5-fluorouracil (150 mg/kg, intraperitoneal injection). Bone marrow cells from donor mice are harvested, treated with red blood cell lysis buffer, and cultured 24 h in transplant medium (RPMI+10% FBS+6 ng/mL IL-3, 10 ng/mL IL-6, and 10 ng/mL stem cell factor). Cells are treated by spin infection with retroviral supernatants (1 mL supernatant per 4×10^6 cells, plus polybrene) and centrifuged at 2500 rpm for 90 min. 24 h later, the spin infection is repeated, then cells are washed, resuspended in Hank's balanced salt solution, and injected into lateral tail veins of lethally irradiated (2×450 rad) Balb/C recipient mice (Taconic) at 0.5-1×10^6 cells/mouse. […] Animals are sacrificed when they had palpable splenomegaly or were moribund, or, if healthy, 7 days after sacrifice of the last animal in the placebo group.
# (§2) Peripheral blood is collected from the retroorbital cavity using heparinized glass capillary tubes and analyzed by automated complete and differential blood cell counts and smears (stained with Wright and Giemsa). Single cell suspensions of spleen and bone marrow are prepared by pressing tissue through a cell strainer, followed by red blood cell lysis. Cells are frozen in 90% FBS, 10% DMSO.
# (§3) For histopathology, tissues are fixed for at least 72 h in 10% neutral buffered formalin, dehydrated in alcohol, cleared in xylene, and infiltrated with paraffin on an automated processor (Leica). The tissue sections (4 μm) from paraffin-embedded tissue blocks are placed on charged slides and deparaffinized in xylene, rehydrated through graded alcohol solutions, and stained with hematoxylin and eosin.
# (§4) For flow cytometry, cells are washed in PBS+1% bovine serum albumin (BSA), blocked with Fc-Block (BD Pharmingen) for 10 min on ice, and stained with monoclonal antibodies in PBS+1% BSA for 20 min on ice. Antibodies used are: allophycocyanin (APC)-conjugated Gr1, CD19, and TCRB; and phycoethrin (PE)-conjugated Mac-1, B220, and CD3 (BD Pharmingen). Flow cytometric analysis is performed on a FACSCalibur instrument and analyzed with CellQuest software. Viability is assessed by incubating cells with 7AAD (BD Pharmingen) for 5 min prior to flow cytometry. Cells are gated for viability (using forward/side scatter and 7AAD) and GFP positivity, and 10,000 events are analyzed from this subset for marker expression.
# Statistical significance of differences between Compound (II)- and placebo-treated groups in survival time, white blood cell counts, and spleen weights are assessed using a two-sided Mann-Whitney U-test (Wilcoxon rank sum test).
# A murine bone marrow transplant protocol is used to model myeloproliferative disease caused by TEL-PDGFRβ and FIP1L1-PDGFRα. Retroviral transduction of these fusion kinases into bone marrow cells of 5FU-treated donor mice, followed by transplantation into lethally irradiated recipients, produces a rapidly fatal myeloproliferative phenotype characterized by leukocytosis with myeloid predominance, splenomegaly, and extramedullary hematopoiesis.
# (§5) Donor bone marrow cells are transduced with a murine retroviral vector expressing TEL-PDGFRβ or FIP1L1-PDGFRα and transplanted into recipients.
# [2] = target: T1, Ba/F3 cells transformed by TEL-PDGFRβ T681I mutant (Homo sapiens, UniProt P09619, T681I); experiment: Proliferation of Ba/F3 cells transformed by TEL-PDGFRβ T681I mutant; format: cell-based; settings: Ba/F3 cells transformed with TEL-PDGFRβ T681I mutant
# T1 construct: TEL (ETV6) portion (fusion partner); expressed in transfected cells; host or cells: Ba/F3 cells (retroviral transduction, MSCV-neo); the other entry of the earlier key: ETV6 (P41212, Transcription factor ETV6)
# Procedure: (§6) TEL-PDGFRβ [T/P], FIP1L1-PDGFRα [F/P], and FIP1L1-PDGFRα T6741 cloned in MSCV-IRES-GFP [MSCV-GFP], and TEL-PDGFRβ, TEL-PDGFRβ T681I, and TEL-FGFR3 [T/F] are cloned in MSCV-neomycin [MSCV-neo].
# (§7) Ba/F3 cells are cultured in RPMI 1640 (RPMI)+10% FBS+1 ng/mL mouse interleukin (IL)-3. Retroviral supernatants are generated and used to transduce Ba/F3 cells. T/P MSCV-neo and T/F MSCV-neo cell lines are selected with 1 mg/mL G418 in the presence of IL-3 for 8-10 days. F/P MSCV-GFP cell lines are selected in RPMI lacking IL-3 for 7-10 days. […] Transformed Ba/F3 cells are grown in RPMI lacking IL-3.
# (§8) The effects of compounds on viability and proliferation of the cells were determined using the luminescent ATP Detection assay kit ATPLite™ from Perkin Elmer Life Sciences (Cat. No: 6016947) according to the instructions of the suppliers. This assay system is based on the production of light (luminescence) caused by the reaction of ATP with added luciferase and D-luciferin. […]
# (§9) The effect of the compound was expressed as percent reduction of the control signal. The TGI50 values were determined from the dose response curves by graphical extrapolation.
# [3] = system: TEL-PDGFRβ; experiment: Western blot of TEL-PDGFRβ phosphorylation and signaling intermediates in Ba/F3 cells; format: cell-based
# Procedure: For T/P: Ba/F3 cells stably expressing T/P or T/F are treated with serum starvation in plain RPMI 1640 for 4 hours prior to lysis. The cell extracts are clarified by centrifugation and used for immunoprecipitation or immunoblotting. The enzyme-linked immunoblotting procedures are performed as described. Applied antibodies include: rabbit anti-PDGFRβ serum (Pharmingen); rabbit anti-PI3K (p85) serum; mouse anti-phosphotyrosine 4G10 (Upstate Biotechnology); antibodies against FGFR3, phospho-PI3K p85 (Tyr-508) (Santa Cruz Biotechnology); PLCγ, phospho-PLCγ (Tyr-783) (Cell Signaling).
# [4] = target: T2, FIP1L1-PDGFRα (Homo sapiens, UniProt P16234); experiment: Murine bone marrow transplant model of FIP1L1-PDGFRα-induced myeloproliferative disease; format: in vivo, mouse (Balb/C); settings: FIP1L1-PDGFRα transplanted mice
# T2 construct: FIP1L1 portion (fusion partner); expressed in transfected cells; host or cells: Balb/C mouse donor bone marrow cells (retroviral transduction, MSCV-GFP), transplanted into Balb/C recipients; the other entry of the earlier key: FIP1L1 (Q6UN15, Pre-mRNA 3'-end-processing factor FIP1)
# Procedure: as §1, §2, §3, §4
# A murine bone marrow transplant protocol is used to model myeloproliferative disease caused by TEL-PDGFRβ and FIP1L1-PDGFRα.
# as §5
# [5] = target: T3, Ba/F3 Tel-PDGFRβ cells (Homo sapiens, UniProt P09619); experiment: IL-3 independence cell proliferation assay (ATPLite), Ba/F3 Tel-PDGFRβ; format: cell-based
# T3 construct: TEL-PDGFRβ, TEL-PDGFRβ T681I, and TEL-FGFR3 [T/F] are cloned in MSCV-neomycin [MSCV-neo]; fused on or other part: P41212 (Transcription factor ETV6)
# Procedure: as §6, §7, §8, §9
# [6] = daily oral gavage 150 mg/kg/day from day 11
# [7] = daily oral gavage 150 mg/kg/day from day 11 after transplant
# T2 sequence (P16234 593-1089 limits assumed): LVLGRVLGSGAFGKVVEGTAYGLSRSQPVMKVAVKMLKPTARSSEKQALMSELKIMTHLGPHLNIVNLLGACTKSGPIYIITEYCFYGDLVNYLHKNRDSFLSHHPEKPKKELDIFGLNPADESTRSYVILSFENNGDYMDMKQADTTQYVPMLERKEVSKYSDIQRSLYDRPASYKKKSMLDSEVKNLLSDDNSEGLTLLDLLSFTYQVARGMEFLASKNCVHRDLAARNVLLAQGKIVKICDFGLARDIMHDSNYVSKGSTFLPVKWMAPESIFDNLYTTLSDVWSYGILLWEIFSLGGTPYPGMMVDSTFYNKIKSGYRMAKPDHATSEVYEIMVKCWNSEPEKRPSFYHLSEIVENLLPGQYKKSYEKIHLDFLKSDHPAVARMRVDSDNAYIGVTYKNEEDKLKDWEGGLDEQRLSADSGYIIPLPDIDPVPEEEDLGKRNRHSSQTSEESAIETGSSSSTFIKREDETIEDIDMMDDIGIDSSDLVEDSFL
# T3 sequence (P09619 whole entry, stated change not applied, the tested form may be a part): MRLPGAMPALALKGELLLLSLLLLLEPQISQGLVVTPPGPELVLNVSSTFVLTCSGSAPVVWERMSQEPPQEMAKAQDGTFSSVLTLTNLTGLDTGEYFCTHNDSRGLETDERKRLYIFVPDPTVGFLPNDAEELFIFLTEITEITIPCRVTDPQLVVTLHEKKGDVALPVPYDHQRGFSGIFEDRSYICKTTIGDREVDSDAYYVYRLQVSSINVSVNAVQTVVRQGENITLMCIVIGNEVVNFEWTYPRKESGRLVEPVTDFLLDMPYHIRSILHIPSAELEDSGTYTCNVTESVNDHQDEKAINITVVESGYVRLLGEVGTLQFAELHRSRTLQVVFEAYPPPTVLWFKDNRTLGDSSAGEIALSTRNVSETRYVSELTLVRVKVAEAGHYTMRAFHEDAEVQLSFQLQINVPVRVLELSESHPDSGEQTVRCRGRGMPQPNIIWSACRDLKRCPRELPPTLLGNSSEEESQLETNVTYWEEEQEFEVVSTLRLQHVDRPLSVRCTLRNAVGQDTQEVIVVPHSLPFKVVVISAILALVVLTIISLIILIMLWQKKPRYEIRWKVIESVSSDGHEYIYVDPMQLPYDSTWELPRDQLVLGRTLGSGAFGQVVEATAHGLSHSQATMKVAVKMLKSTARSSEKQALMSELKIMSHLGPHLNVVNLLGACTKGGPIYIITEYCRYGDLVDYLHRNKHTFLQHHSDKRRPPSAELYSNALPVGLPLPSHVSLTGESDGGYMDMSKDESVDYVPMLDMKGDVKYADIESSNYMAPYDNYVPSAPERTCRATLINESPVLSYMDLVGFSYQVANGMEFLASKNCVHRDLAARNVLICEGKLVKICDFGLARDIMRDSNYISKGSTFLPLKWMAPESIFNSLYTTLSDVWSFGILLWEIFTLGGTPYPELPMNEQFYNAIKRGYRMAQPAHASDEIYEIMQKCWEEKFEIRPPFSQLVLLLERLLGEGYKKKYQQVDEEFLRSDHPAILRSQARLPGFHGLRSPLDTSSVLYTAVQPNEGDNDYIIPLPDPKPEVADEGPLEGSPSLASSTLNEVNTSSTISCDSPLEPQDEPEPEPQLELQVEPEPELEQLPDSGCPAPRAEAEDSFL
# T1 sequence (P09619 554-1106 T681I limits assumed): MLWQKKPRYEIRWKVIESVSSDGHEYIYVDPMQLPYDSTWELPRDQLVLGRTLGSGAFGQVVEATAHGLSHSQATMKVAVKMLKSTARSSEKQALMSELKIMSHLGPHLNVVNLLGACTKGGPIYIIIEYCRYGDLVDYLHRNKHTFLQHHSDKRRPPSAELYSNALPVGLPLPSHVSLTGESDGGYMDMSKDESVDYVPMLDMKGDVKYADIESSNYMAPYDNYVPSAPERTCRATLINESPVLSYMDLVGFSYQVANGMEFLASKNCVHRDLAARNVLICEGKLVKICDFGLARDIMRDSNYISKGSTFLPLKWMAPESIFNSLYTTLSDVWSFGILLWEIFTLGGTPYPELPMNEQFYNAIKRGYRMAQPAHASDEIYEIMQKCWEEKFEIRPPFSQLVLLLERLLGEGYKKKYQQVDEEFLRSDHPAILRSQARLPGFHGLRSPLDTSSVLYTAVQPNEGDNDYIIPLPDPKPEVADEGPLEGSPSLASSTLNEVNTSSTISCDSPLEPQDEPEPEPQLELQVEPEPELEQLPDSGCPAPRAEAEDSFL
smiles,measurement,setting,value
"Cc1cn(-c2cc(NC(=O)c3ccc(C)c(Nc4nccc(-c5cccnc5)n4)c3)cc(C(F)(F)F)c2)cn1 [Compound (II), 4-methyl-3-[[4-(3-pyridinyl)-2-pyrimidinyl]amino]-N-[5-(4-methyl-1H-imidazol-1-yl)-3-(trifluoromethyl)phenyl] benzamide]","FACS analysis of spleen, B220+/CD19+ cells",[1]; compared to placebo,slightly increased percentage
same,"FACS analysis of spleen, Gr1+/Mac1+ cells",[1]; compared to placebo,consistently reduced percentage
same,Histopathology of hematopoietic organs,[1]; compared to placebo,significantly less severe myeloproliferative disease
same,"Liver weight, Mean",[1]; [6],1492.5 mg
same,"Liver weight, Median",[1]; [6],1535 mg
same,"Liver weight, Range",[1]; [6],1320 to 1590 mg
same,"Spleen weight, Mean",[1]; [6],350.0 mg
same,"Spleen weight, Median",[1]; [6],340 mg
same,"Spleen weight, Range",[1]; [6],250 to 470 mg
same,"WBC, Median",[1]; [6],1.59e+07 mL⁻¹
same,"WBC, Range",[1]; [6],10.9-33.5 ×10^6/mL
same,"WBC, Mean",[1]; [7],1.86e+07 mL⁻¹
same,Survival,"[1]; placebo median latency 17 days, p<0.001",26 days
same,Total white blood cells (WBC),"[1]; vs 563.7 for placebo, p<0.05",18.6 ×10^6 cells/mL
same,Inhibition of transformed Ba/F3 cells,[2],inhibited
same,Phosphorylation of PDGFRβ signaling intermediates including PLCγ and PI3K,[3],effectively inhibited
same,TEL-PDGFRβ tyrosine autophosphorylation,[3],effectively inhibited
same,Extramedullary hematopoiesis in liver,[4]; compared to placebo,notable absence of any extramedullary hematopoiesis
same,Histopathology of spleen,[4]; compared to placebo,striking preservation of normal splenic architecture
same,"Liver weight, Mean",[4]; [6],1128.0 mg
same,"Liver weight, Median",[4]; [6],1090 mg
same,"Liver weight, Range",[4]; [6],1080 to 1290 mg
same,"Spleen weight, Mean",[4]; [6],88.0 mg
same,"Spleen weight, Median",[4]; [6],100 mg
same,"Spleen weight, Range",[4]; [6],50 to 100 mg
same,"WBC, Median",[4]; [6],4.7e+06 mL⁻¹
same,"WBC, Range",[4]; [6],4.0-9.6 ×10^6/mL
same,"WBC, Mean",[4]; [7],5.6e+06 mL⁻¹
same,Survival: all treated animals alive and healthy until study termination,[4]; all placebo animals lost by day 24,≥ 33 days
same,Total WBC,"[4]; vs 569.7 for placebo, p<0.01",5.6 ×10^6 cells/mL
same,GI50,"[5]; Ba/F3 Tel-PDGFRβ cells, 70 h incubation, read-out: IC50, inhibition of proliferation",< 100 nM
same,Inhibition of transformed Ba/F3 cells,[5]; Ba/F3 cells transformed with TEL-PDGFRβ,inhibited

# Reference: patent publication US7666874B2, “Pyrimidylaminobenzamide derivatives for hypereosinophilic syndrome” (Novartis AG, priority 2005, dated 2010)
